Publication PMC10336128, “In vitro efficacy of different PEGylation designs on cathelicidin-like peptide with high antibacterial and antifungal activity” (Scientific Reports, 2023)
Read-outs that look alike come from different tables or passages of the source. No end group written: not given here.

Columns and labels:
[1] = MTT cytotoxicity assay; format: cell-based; settings: for CC50 at 24 h: human, HaCaT keratinocyte cells; for IC50 at 24 h: mouse
Method: Human skin keratinocyte (HaCaT, HEKa, PCS-200-011™, ATCC) and mouse embryonic fibroblast (3T3, CRL-1658™, ATCC) cells were counted to 5 × 10^4 cells/well in 100 µL of DMEM containing 10% FBS, and 1% Pen/Strep antibiotics were placed in a flat-bottom 96-well plate and incubated in 5% CO2 at 37 °C. After 24 h, the medium on the attached cells was discarded. Serial peptide/conjugate dilutions (1024–0.5 µg/mL) prepared in complete DMEM (100 µL of total volume) in triplicate were added to the cell-seeded plates and incubated in 5% CO2 at 37 °C for 24 h. Cytotoxicity was determined using the 3-(4, 5-dimethylthiazol-2-yl)-2, 5-diphenyltetrazolium bromide assay kit (MTT, Cell Proliferation Kit, Roche) following the kit procedure and measured at 550 nm and 690 nm using a microplate reader. Cytotoxicity was calculated according to the cell control samples in complete DMEM.

[2] = test system: E. coli ATCC 25922; assay: microbe, parasite or virus in culture; format: cell-based, Escherichia coli
Method: (§1) Staphylococcus aureus (S. aureus ATCC 25923), Escherichia coli (E. coli ATCC 25922), Pseudomonas aeruginosa (P. aeruginosa ATCC 27853), Candida albicans (C. albicans ATCC 10231), methicillin-resistant S. aureus (MRSA, ATCC 33591) and vancomycin-resistant Enteroccus faecium (VRE-faecium, ATCC BAA-2316) were grown in MHA at 37 °C, overnight. A colony was then selected and transferred to MHB. Each bacterial solution in the MHB was adjusted to 0.5 McFarland with OD600 value between 0.08 and 0.1 using UV–Vis spectrophotometer (NanoDrop™ One/OneC Microvolume, Thermo Scientific). Afterward, 0.5 McFarland bacteria cultures were diluted in MHB at a ratio of 1:100. The peptide/conjugate concentration was quantified using a UV–Vis spectrophotometer at 214 nm. Serial dilutions of peptide and conjugates (1024–0.5 µg/mL) were prepared in MHB with a total volume of 95 µL in a round-bottom 96-well plate. Of the prepared bacterial suspensions, 5 µL was added into sample dilutions in each prepared well. Ampicillin (GeneMark) was used as a positive control and bacterial solution alone was used as a negative control. All 96-well plates were incubated overnight at 37 °C, and all samples were prepared in triplicate. Then, samples were measured at 600 nm using a microplate reader (Gen5 Synergy HT BioTek, USA)[31].

[3] = test system: VRE-faecium ATCC BAA-2316; assay: organism not typed; format: cell-based, vancomycin-resistant Enteroccus faecium
Method: as §1

[4] = test system: plasma proteases; format: in vitro ADME, human
Method: To separate human plasma, EDTA-treated fresh human blood from a healthy donor (Acibadem Mehmet Ali Aydinlar University, Istanbul, Turkey) was centrifuged at 1500 rpm for 5 min, and the supernatant was collected. The peptide and conjugates were mixed with human plasma to a final concentration of 0.1 mg/mL (1.7 µL, 2048 µg/mL sample completed with plasma) and incubated at 37 °C, 1500 rpm in a shaker. Aliquots were collected after 0 h, 6 h, and 24 h incubation and stored at – 20 °C[32]. 5 µL protease inhibitor was added onto 35 µL aliquots.
S. aureus ATCC 25923 was cultured in MHA overnight at 37 °C. A colony was then selected and transferred to MHB. The bacterial solution was adjusted to 0.5 McFarland with OD600 value between 0.08 and 0.1 using UV–Vis spectrophotometer and diluted to a 1:200 ratio in MHB. 5 µL of the bacterial suspension was added into serial dilutions of aliquots prepared in MHB (40 µL of total volume) in a round-bottom 96-well plate and incubated overnight at 37 °C. Afterward, 96-well plates were measured at 600 nm using a microplate reader. All samples were prepared in triplicate.

[5] = test system: S. aureus ATCC 25923; assay: microbe, parasite or virus in culture; format: cell-based, Staphylococcus aureus
Method: as §1

[6] = test system: P. aeruginosa ATCC 27853; assay: microbe, parasite or virus in culture; format: cell-based, Pseudomonas aeruginosa
Method: as §1

[7] = test system: MRSA ATCC 33591; assay: microbe, parasite or virus in culture; format: cell-based, methicillin-resistant S. aureus
Method: as §1

[8] = test system: human erythrocytes; assay: Cell-associated hemolytic activity assay (with S. aureus ATCC 25923); format: cell-based; settings: human erythrocytes plus S. aureus ATCC 25923 (5 µL of 1.5 × 10^6 CFU/mL), tris-saline, 37 °C, read at 414 nm, three replicates
Method: (§2) 300 µL of fresh human blood (Acibadem Mehmet Ali Aydinlar University, Istanbul, Turkey) was suspended in 20 mL of sterile tris-saline (150 mM NaCl, 10 mM Tris, pH 7.2) solution and centrifuged 3 times at 1500 rpm for 5 min. Pellet was dissolved with 100 mL of tris-saline and 100 µL blood mix was added into each well of a round-bottom 96-well plate. Serial peptide/conjugate dilutions (1024–0.5 µg/mL) prepared in tris-saline (100 µL of total volume) in triplicate were added on top of the blood mix. 10% DMSO prepared in Triton X-100 treated with blood mix used as a positive control, and the blood mix itself was used as a negative control. The samples were kept on separate round-bottom 96-well plates at 37 °C for 30 min and 1 h, respectively, to examine two different conditions. After incubations, the 96-well plates were centrifuged at 1500 rpm for 10 min. The supernatants were then transferred into a new round-bottom 96-well plate for measurement at 414 nm using a microplate reader. The lysis percentage of the peptide/conjugate was calculated using Eq. (1) as follows:1 Hemolysis%=Sample414nm-Negativecontrol414nm/Positivecontrol414nm-Negativecontrol414nm×100
S. aureus ATCC 25923 bacterial solution in MHB was prepared as in the minimum inhibitory concentration (MIC) experiment. […]

[9] = test system: human erythrocytes; assay: Hemolytic activity assay; format: cell-based
Method: as §2

[10] = test system: C. albicans ATCC 10231; assay: microbe, parasite or virus in culture; format: cell-based, Candida albicans
Method: as §1

## GIGKFLHSAKKFGKAFVGEIMNS [Mag-2, reference compound]
[1]; HaCaT cells, MTT, 24 h, 37 °C, DMEM 10% FBS, three replicates, maximum concentration tested 512 µg/mL, mass of whole conjugate, read-out: inhibitory concentration (IC50), cytotoxicity
  CC50 at 24 h: 258 µg/mL
[1]; 3T3 cells, MTT, 24 h, 37 °C, DMEM 10% FBS, three replicates, mass of whole conjugate, read-out: inhibitory concentration (IC50), cytotoxicity
  IC50 at 24 h: 153 µg/mL

## RLLRLLLRLLR-NH2 [TN6]
[2]; ATCC 25922
  Minimum Inhibitory Concentration: 1 µg/mL
[3]; ATCC BAA-2316
  Minimum Inhibitory Concentration: 1.56 µg/mL
[4]; 0 h
  MIC after plasma proteases, 0 h: 2.56 µg/mL
[4]; 6 h
  MIC after plasma proteases, 6 h: 2.56 µg/mL
[4]; 24 h
  MIC after plasma proteases, 24 h: 5.12 µg/mL
[5]; ATCC 25923
  Minimum Inhibitory Concentration: 1 µg/mL
[6]; ATCC 27853
  Minimum Inhibitory Concentration: 4 µg/mL
[7]; ATCC 33591
  Minimum Inhibitory Concentration: 0.78 µg/mL
[8]
  HC50, 60 min with S. aureus ATCC 25923: hemotoxic effect at all doses
[9]; human erythrocytes in tris-saline pH 7.2, 60 min, 37 °C, without bacteria, read at 414 nm, three replicates
  HC50 (dose killing 50% of the red blood cells), 60 min: hemotoxic effect at all doses
[9]; pH 7.2
  HC50 (dose killing 50% of the red blood cells), 60 min: toxic even at 1 µg/mL
  hemolysis, 30 min: well above the toxic dose (HC50)
[1]
  CC50 at 24 h: 161 µg/mL
  IC50 at 24 h: 14.6 µg/mL
[10]; ATCC 10231
  Minimum Inhibitory Concentration: 1 µg/mL

## CC1(C)S[C@@H]2[C@H](NC(=O)[C@H](N)c3ccccc3)C(=O)N2[C@H]1C(=O)O [Ampicillin, reference compound]
[2]; Escherichia coli, ATCC25922, E. coli ATCC 25922, serial dilution in MHB, 96-well, overnight 37 °C, OD 600 nm, triplicate, same results in all replicates, mass of whole conjugate, read-out: Minimum Inhibitory Concentration
  MIC: 32 µg/mL
[3]; VRE-faecium ATCC BAA-2316, serial dilution in MHB, 96-well, overnight 37 °C, OD 600 nm, triplicate, same results in all replicates, mass of whole conjugate, read-out: Minimum Inhibitory Concentration
  MIC: 16 µg/mL
[5]; Staphylococcus aureus, ATCC25923, S. aureus ATCC 25923, serial dilution in MHB, 96-well, overnight 37 °C, OD 600 nm, triplicate, same results in all replicates, mass of whole conjugate, read-out: Minimum Inhibitory Concentration
  MIC: 8 µg/mL
[6]; Pseudomonas aeruginosa, ATCC27853, P. aeruginosa ATCC 27853, serial dilution in MHB, 96-well, overnight 37 °C, OD 600 nm, triplicate, same results in all replicates, mass of whole conjugate, read-out: Minimum Inhibitory Concentration
  MIC: 256 µg/mL
[7]; Staphylococcus aureus, MRSA ATCC 33591, serial dilution in MHB, 96-well, overnight 37 °C, OD 600 nm, triplicate, same results in all replicates, mass of whole conjugate, read-out: Minimum Inhibitory Concentration
  MIC: 32 µg/mL
[10]; Candida albicans, ATCC10231, C. albicans ATCC 10231, serial dilution in MHB, 96-well, overnight 37 °C, OD 600 nm, triplicate, same results in all replicates, mass of whole conjugate, read-out: Minimum Inhibitory Concentration
  MIC: 16 µg/mL
